The values below come from ChEMBL document CHEMBL1821720, “Discovery and hit-to-lead optimization of novel allosteric glucokinase activators” (Bioorg Med Chem Lett, 2011).

One assay deals with T1, Hexokinase-4 (Homo sapiens) (UniProt P35557).
T1 sequence (whole entry): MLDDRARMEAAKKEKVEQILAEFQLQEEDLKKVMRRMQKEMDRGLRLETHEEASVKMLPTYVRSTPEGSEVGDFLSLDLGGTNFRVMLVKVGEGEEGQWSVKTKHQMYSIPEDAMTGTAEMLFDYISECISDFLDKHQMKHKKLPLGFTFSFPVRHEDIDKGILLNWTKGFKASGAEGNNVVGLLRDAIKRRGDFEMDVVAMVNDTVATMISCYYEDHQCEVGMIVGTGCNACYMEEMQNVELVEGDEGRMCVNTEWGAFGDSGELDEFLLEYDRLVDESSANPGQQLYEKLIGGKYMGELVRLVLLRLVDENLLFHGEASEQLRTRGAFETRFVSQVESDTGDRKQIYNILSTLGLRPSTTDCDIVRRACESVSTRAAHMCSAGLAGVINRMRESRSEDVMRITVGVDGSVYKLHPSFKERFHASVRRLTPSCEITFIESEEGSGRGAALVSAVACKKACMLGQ
The experiment in a line: Activation of human recombinant glucokinase expressed in Escherichia coli coexpressing G6PDH at 10 uM using 5 mM glucose measured as ratio of enzyme activation in treated to untreated control by G6PDH coupled continuous spectrophotometric assay.
For `COC(=O)c1ccccc1-c1cc(C(=O)Nc2nc3c(s2)CCC3)c(C)o1`, the Ratio turned out to be 1.36.

For the molecule `CC(=O)c1ccccc1-c1cc(C(=O)Nc2nc3c(s2)CCC3)c(C)s1`, the Ratio was 3.52.

On to `CC(=O)c1ccccc1-c1cc(C(=O)Nc2nc3c(s2)CCC3)co1`, for which the Ratio turned out to be 1.77.

Consider `Cc1cc(C(=O)Nc2nc3c(s2)CCCC3)no1`, for which the Ratio worked out at 1.11.

For `Cc1oc(-c2ccccc2S(C)(=O)=O)cc1C(=O)Nc1nc2c(s1)CCC2`, the Ratio is 2.81.

As for `Cc1oc(-c2ccccc2C#N)cc1C(=O)Nc1nc2c(s1)CCC2`, the Ratio was 1.25.

Take `Cc1cc(C(=O)Nc2nc3c(s2)CCCCC3)c(C)o1`: the Ratio was determined as 1.53.

`Cc1oc(-c2ccccc2C(=O)O)cc1C(=O)Nc1nc2c(s1)CCC2`: the Ratio is 0.92.

Turning to `Cc1oc(-c2ccccc2[N+](=O)[O-])cc1C(=O)Nc1nc2c(s1)CCC2`, the Ratio was 1.89.

Regarding `CCc1oc(-c2ccccc2C(N)=O)cc1C(=O)Nc1nc2c(s1)CCC2`, the Ratio came out at 2.61.

As for `CCc1sc(-c2ccccc2C(C)=O)cc1C(=O)Nc1nc2c(s1)CCC2`, the Ratio was found to be 2.46.

For `CCc1oc(-c2ccccc2S(C)(=O)=O)cc1C(=O)Nc1nc2c(s1)CCC2`, the Ratio turned out to be 2.92.

Take `O=C(Nc1nc2c(s1)CCCC2)c1cccnc1`: the Ratio stood at 1.06.

On to `CC(=O)OCc1cc(C(=O)Nc2nc3c(s2)CCC3)c(C)o1`, for which the Ratio worked out at 2.35.

A further assay concerns the target T1, Hexokinase-4 (Homo sapiens). Briefly: Activation of human recombinant glucokinase expressed in Escherichia coli coexpressing G6PDH at 10 uM using 5 mM glucose measured as ratio of enzyme activation in compound treated to Ro-28-1675 by G6PDH coupled continuous spectrophotometric assay.
For the molecule `COC(=O)c1ccccc1-c1cc(C(=O)Nc2nc3c(s2)CCC3)c(C)o1`, the Ratio came to 0.098.

Regarding `CC(=O)c1ccccc1-c1cc(C(=O)Nc2nc3c(s2)CCC3)c(C)s1`, the Ratio stood at 0.66.

For `CC(=O)c1ccccc1-c1cc(C(=O)Nc2nc3c(s2)CCC3)co1`, the Ratio is 0.207.

`Cc1cc(C(=O)Nc2nc3c(s2)CCCC3)no1`: the Ratio was 0.022.

For the molecule `Cc1oc(-c2ccccc2S(C)(=O)=O)cc1C(=O)Nc1nc2c(s1)CCC2`, the Ratio came to 0.504.

For the molecule `Cc1oc(-c2ccccc2C#N)cc1C(=O)Nc1nc2c(s1)CCC2`, the Ratio amounted to 0.067.

In the case of `Cc1cc(C(=O)Nc2nc3c(s2)CCCCC3)c(C)o1`, the Ratio is 0.127.

Regarding `Cc1oc(-c2ccccc2C(=O)O)cc1C(=O)Nc1nc2c(s1)CCC2`, the Ratio was -0.023.

On to `Cc1oc(-c2ccccc2[N+](=O)[O-])cc1C(=O)Nc1nc2c(s1)CCC2`, for which the Ratio is 0.244.

In the case of `CCc1oc(-c2ccccc2C(N)=O)cc1C(=O)Nc1nc2c(s1)CCC2`, the Ratio came to 0.453.

As to `CCc1sc(-c2ccccc2C(C)=O)cc1C(=O)Nc1nc2c(s1)CCC2`, the Ratio amounted to 0.446.

On to `CCc1oc(-c2ccccc2S(C)(=O)=O)cc1C(=O)Nc1nc2c(s1)CCC2`, for which the Ratio stood at 0.586.

For `O=C(Nc1nc2c(s1)CCCC2)c1cccnc1`, the Ratio amounted to 0.012.

For `CC(=O)OCc1cc(C(=O)Nc2nc3c(s2)CCC3)c(C)o1`, the Ratio came out at 0.312.

The target is the same in another assay. Briefly: Activation of human recombinant glucokinase expressed in Escherichia coli coexpressing G6PDH at 10 uM using 20 mM glucose measured as ratio of enzyme activation in treated to untreated control by G6PDH coupled continuous spectrophotometric assay.
Regarding `COC(=O)c1ccccc1-c1cc(C(=O)Nc2nc3c(s2)CCC3)c(C)o1`, the Ratio was found to be 1.1.

Regarding `CC(=O)c1ccccc1-c1cc(C(=O)Nc2nc3c(s2)CCC3)c(C)s1`, the Ratio was 1.71.

For `CC(=O)c1ccccc1-c1cc(C(=O)Nc2nc3c(s2)CCC3)co1`, the Ratio is 1.42.

`Cc1cc(C(=O)Nc2nc3c(s2)CCCC3)no1`: the Ratio was determined as 1.06.

On to `Cc1oc(-c2ccccc2S(C)(=O)=O)cc1C(=O)Nc1nc2c(s1)CCC2`, for which the Ratio was determined as 1.72.

Turning to `Cc1oc(-c2ccccc2C#N)cc1C(=O)Nc1nc2c(s1)CCC2`, the Ratio stood at 1.1.

Consider `Cc1cc(C(=O)Nc2nc3c(s2)CCCCC3)c(C)o1`, for which the Ratio turned out to be 1.05.

Turning to `Cc1oc(-c2ccccc2C(=O)O)cc1C(=O)Nc1nc2c(s1)CCC2`, the Ratio amounted to 0.94.

As for `Cc1oc(-c2ccccc2[N+](=O)[O-])cc1C(=O)Nc1nc2c(s1)CCC2`, the Ratio is 1.46.

`CCc1oc(-c2ccccc2C(N)=O)cc1C(=O)Nc1nc2c(s1)CCC2`: the Ratio came to 1.61.

Regarding `CCc1sc(-c2ccccc2C(C)=O)cc1C(=O)Nc1nc2c(s1)CCC2`, the Ratio worked out at 1.5.

For the molecule `CCc1oc(-c2ccccc2S(C)(=O)=O)cc1C(=O)Nc1nc2c(s1)CCC2`, the Ratio amounted to 1.39.

As for `O=C(Nc1nc2c(s1)CCCC2)c1cccnc1`, the Ratio worked out at 0.97.

`CC(=O)OCc1cc(C(=O)Nc2nc3c(s2)CCC3)c(C)o1`: the Ratio was determined as 1.51.

A further assay shares this target. Briefly: Activation of human recombinant glucokinase expressed in Escherichia coli coexpressing G6PDH at 10 uM using 5 mM glucose by G6PDH coupled continuous spectrophotometric assay relative to Ro-28-1675.
`CC(=O)c1ccccc1-c1cc(C(=O)Nc2nc3c(s2)CCC3)c(C)s1`: the Activity was 66%.

Another assay shares this target. The experiment in a line: Activation of human recombinant glucokinase expressed in Escherichia coli coexpressing G6PDH at 10 uM using 20 mM glucose by G6PDH coupled continuous spectrophotometric assay relative to Ro-28-1675.
On to `CC(=O)c1ccccc1-c1cc(C(=O)Nc2nc3c(s2)CCC3)c(C)s1`, for which the Activity amounted to 63%.

A further assay shares this target. The experiment in a line: Activation of human recombinant glucokinase expressed in Escherichia coli coexpressing G6PDH at 10 uM using 20 mM glucose measured as ratio of enzyme activation in compound treated to Ro-28-1675 by G6PDH coupled continuous spectrophotometric assay.
For `COC(=O)c1ccccc1-c1cc(C(=O)Nc2nc3c(s2)CCC3)c(C)o1`, the Ratio came out at 0.054.

For the molecule `CC(=O)c1ccccc1-c1cc(C(=O)Nc2nc3c(s2)CCC3)c(C)s1`, the Ratio was 0.627.

With `CC(=O)c1ccccc1-c1cc(C(=O)Nc2nc3c(s2)CCC3)co1`, the Ratio was determined as 0.275.

For the molecule `Cc1cc(C(=O)Nc2nc3c(s2)CCCC3)no1`, the Ratio worked out at 0.036.

As to `Cc1oc(-c2ccccc2S(C)(=O)=O)cc1C(=O)Nc1nc2c(s1)CCC2`, the Ratio amounted to 0.47.

`Cc1oc(-c2ccccc2C#N)cc1C(=O)Nc1nc2c(s1)CCC2`: the Ratio came out at 0.064.

For `Cc1cc(C(=O)Nc2nc3c(s2)CCCCC3)c(C)o1`, the Ratio came out at 0.028.

For `Cc1oc(-c2ccccc2C(=O)O)cc1C(=O)Nc1nc2c(s1)CCC2`, the Ratio was -0.034.

With `Cc1oc(-c2ccccc2[N+](=O)[O-])cc1C(=O)Nc1nc2c(s1)CCC2`, the Ratio was found to be 0.267.

Take `CCc1oc(-c2ccccc2C(N)=O)cc1C(=O)Nc1nc2c(s1)CCC2`: the Ratio stood at 0.509.

As for `CCc1sc(-c2ccccc2C(C)=O)cc1C(=O)Nc1nc2c(s1)CCC2`, the Ratio is 0.446.

As for `CCc1oc(-c2ccccc2S(C)(=O)=O)cc1C(=O)Nc1nc2c(s1)CCC2`, the Ratio is 0.343.

Consider `O=C(Nc1nc2c(s1)CCCC2)c1cccnc1`, for which the Ratio was -0.015.

For the molecule `CC(=O)OCc1cc(C(=O)Nc2nc3c(s2)CCC3)c(C)o1`, the Ratio came to 0.305.
